We go through one compound from patent US20240182406A1, “COMPOUNDS AS SOLUBLE EPOXIDE HYDROLASE INHIBITORS” (UNIVERSITAT DE BARCELONA, priority 2021, published 2024).

Structures are written as SMILES. Marks after values point to notes of the source that are not given here.

The subject of one experiment is TREM2. Kind of experiment: Western blot of hippocampus, neuroinflammation marker TREM2 (5×FAD mice). The settings on record: 5×FAD male mice, 5 mg/kg, 4 weeks, Arbitrary Units, control as 100%. The format is in vivo, mouse. From the text:
(§1) 5×FAD (tg6799) is an early-onset mouse transgenic model which overexpress mutant human APP(695) with the Swedish (K670N, M671L), Florida (I716V) and London (V717I) Familial Alzheimer's Disease (FAD) mutations along with human PS1 harbouring two FAD mutations (M146L and L286V). The Tg6799 line used is the original hybrid B6SJL background, and this hybrid B6SJL strain is used as a control of healthy animals. The mouse Thy1 promoter regulates both transgenes to drive overexpression in the brain. 5×FAD mice recapitulate major features of AD amyloid pathology and is a useful model of intraneuronal Abeta-42 induced neurodegeneration with amyloid increase brain content and amyloid plaque formation and tau hyperphosphorylation (J Neurosci. 2006, 26(40), 10129-10140).
(§2) The test compound was dissolved in 1.8% hydroxypropyl-beta-cyclodextrin and concentration in water was calculated according to the weekly animal consumption to reach the precise daily dose. A freshly made weekly replaces the drinking solution. The amount of water that the animals drink was monitored weekly, by the cage, and drug concentration was adjusted every week to reach the precise dose. […]
(§3) Afterwards, membranes were washed and incubated with secondary antibodies for 1 h at room temperature. […] Immunodetection of GADPH routinely monitored protein loading. […]
(In general: In western blotting, separated proteins are transferred to a membrane and probed.)

Another experiment concerns mouse primary microglia. The experiment can be described thus: AβO-induced microglial activation, qPCR. The experiment is classed as cell-based. The following applies: pretreated with compound followed by Aβ1-42 (2 μM). As for the experimental part: To validate the inhibition efficacy of sEH, 3×10^5 microglia isolated from CD1 mouse brain were seeded onto 12 well culture plates in microglia medium.
Total RNAs were isolated from microglia or astrocyte using a Quick-RNA kit (Zymo Research, Inc., Irvine, CA, USA). The concentration of total RNAs was measured using a UV-Vis spectrophotometer (NanoDrop8000, Thermo Fisher Scientific Inc., Wilmington, DE, USA) and reverse-transcribed with a high-capacity cDNA reverse transcription kit (Applied Biosystems, Carlsbad, CA, USA). Gene expression was quantified by Fast SYBR green real-time PCR on a Quantstudio 5 system (Applied Biosystems). The primer sequences are listed below (Table 8). Data were analyzed according to the comparative Ct method. Glyceraldehyde 3-phosphate dehydrogenase (Gapdh) was used to normalize the amounts of cDNA within each sample.

A further experiment relates to GFAP. Kind of experiment: Western blot of hippocampus, neuroinflammation marker GFAP (5×FAD mice). The experiment is classed as in vivo, mouse. The settings on record: 5×FAD male mice, 5 mg/kg, 4 weeks, Arbitrary Units, control as 100%.
From the text: as §1, §2, §3

[1] abbreviates: listed as compound of example 2.

Turning to `O=C(NC12CC3CC(Cl)(CC(C1)c1ccccc13)C2)N[C@H]1CC[C@H](Oc2ccc(C(=O)O)cc2)CC1` [Example 2, 4-[((1r,4r)-4-(3-(9-chloro-5,6,8,9,10,11-hexahydro-7H-5,9:7,11-dimethanobenzo[9]annulen-7-yl)ureido)cyclohexyl)oxy]benzoic acid], the TREM2 protein levels with TREM2 (listed as Cpd. Ex. 2) is listed as 118.42 ± 6.53*^; in the experiment on TREM2 (setting [1]), “significant diminution in the protein levels”. Besides, the “mRNA for pro-inflammatory cytokines II-6 and II-1b” value with mouse primary microglia was “prevented”. Besides, the GFAP protein levels is listed as 125.85 ± 9.21*^ in the experiment on GFAP (listed as Cpd. Ex. 2) and “significant diminution in the protein levels” with GFAP (setting [1]).
